Measured values: PubChem BioAssay AID1361 (SRMLSC, 2008)
Active and inactive are the calls of the source. How the calls were made is not given here.

Test: blockers of mitochondrial fusion, WT vs mutant – cell-based, chemical genetic, wild-type and mutant, confirmation (AID 1361)
Settings: Cell-based mitochondrial fusion phenotype, imaging
[1] = mutant cells, measured here: mutant cell line IC50

| Structure (SMILES) | IC50 (WT cells) | IC50 [1] [µM] |
| --- | --- | --- |
| Cc1ccc(C)c(N2CCN(C(=O)Cc3cn(C)c4ccccc34)CC2)c1 | 21.9 µM | > 25 |
| Cc1cc(C)cc(NC(=S)NCCSc2ccc(Cl)cc2)c1 | 4.68 µM | 6.34 |
| O=C(CNC(=S)N(Cc1ccccc1)Cc1ccccc1F)NCCc1ccc(Cl)cc1 | 4.01 µM | > 25 |
| O=C(Nn1c(-c2ccccc2)nc2ccccc2c1=O)C1CCC1 | > 25 µM (inactive) | > 25 |
| O=C(CNCc1ccccc1Cl)Nc1ccccc1N1CCCCC1 | 13.2 µM | > 25 |
| CCCCCCP(=O)(O)c1ccccc1 | > 25 µM (inactive) | > 25 |
| CCOc1ccc(NC(=S)NN(C)C(=S)Nc2ccc(OCC)cc2)cc1 | > 25 µM (inactive) | > 25 |
| COc1ccc(CC(=O)N2CCOCC2)cc1OC | > 25 µM (inactive) | > 25 |
| Fc1ccc(Cn2nnnc2C(c2cccs2)N2CCCCCC2)cc1 (centres undefined) | > 25 µM (inactive) | > 25 |
| CC(C)CCNC(=O)CN(CC1CCCO1)C(=O)CCC(=O)Nc1ccccn1 (centres undefined) | > 25 µM (inactive) | > 25 |
| CC1=CCC[C@@H]2[C@@](C)(CC/C(C)=C/C(=O)O)[C@H](C)CC[C@@]12C | 21.7 µM | > 25 |
| Cc1cccc(N2CCN(C(c3cccs3)c3nnnn3C(C)(C)C)CC2)c1C (centres undefined) | 10.9 µM | > 25 |
| CCOC(=O)C1=C(NC(=S)NC(=O)c2ccccc2)c2ccccc2CC12CCCC2 | 6.33 µM | > 25 |
| CC(C)(C)c1ccc(CN2N=C(/C=C/c3ccccc3)CCC2=O)cc1 | 11.3 µM | > 25 |
| CC(=O)Oc1ccccc1N(C(C)=O)S(=O)(=O)c1ccc2ccccc2c1 | > 25 µM (inactive) | > 25 |
| O=C(CSCC(=O)N1CCCCC1)Nc1nc(-c2ccccc2)c(-c2ccccc2)s1 | 10.7 µM | > 25 |
| O=[N+]([O-])c1ccc(/C=N/Nc2nc(N3CCCCCC3)nc(N3CCCCCC3)n2)o1 | 8.58 µM | > 25 |
| O=S(Cc1ccc(Br)cc1)Cc1nnc(SCc2ccc(Br)cc2)n1-c1ccccc1 (centres undefined) | 13.7 µM | > 25 |
| CCCCCC(=O)Nc1cc(N(C)C)nc2ccccc12 | > 25 µM (inactive) | > 25 |
| CC(C)c1ccccc1OCC(=O)NC1CCCc2ccccc21 (centres undefined) | 20.4 µM | > 25 |
| CCCCCC(O)c1cccc(OCc2ccc3ccccc3n2)c1 (centres undefined) | 14.9 µM | > 25 |

| Structure (SMILES) | IC50 (WT cells) | IC50 [1] [µM] |
| --- | --- | --- |
| CCOC(=O)C(C)c1nc2ccccc2[nH]c1=O (centres undefined) | > 25 µM (inactive) | > 25 |
| COC(=O)C1CSc2[nH]c(=O)sc2C1c1ccc(OC)c(OC)c1 (centres undefined) | > 25 µM (inactive) | > 25 |
| Cc1cccc(N2CCN(C(=O)c3ccc(Cl)c(S(=O)(=O)NCc4ccco4)c3)CC2)c1C | > 25 µM (inactive) | > 25 |
| Clc1ccc(C2=NNC(=NCc3ccc4c(c3)OCO4)SC2)cc1 | > 25 µM (inactive) | > 25 |
| Cc1ccc(Nc2nc(N)c([N+](=O)[O-])c(NCc3ccco3)n2)cc1C | 15.5 µM | > 25 |
| O=C(O)Cn1c(CC(=O)N2CCCC2)nc2ccccc21 | > 25 µM (inactive) | > 25 |
| CCOC(=O)C1=C(C)C(c2cccc(Oc3ccccc3)c2)NC(=S)N1 (centres undefined) | > 25 µM (inactive) | > 25 |
| O=C(Nn1c(C2CCCCC2)nc2ccccc2c1=O)c1ccc(Cl)c([N+](=O)[O-])c1 | 14.8 µM | > 25 |
| CCC(C)c1ccc(NC(=O)COc2c(F)c(F)c(C(F)(F)F)c(F)c2F)cc1 (centres undefined) | 8.03 µM | > 25 |
| N=c1c(C(=O)NCc2ccco2)cc2c(=O)n3ccccc3nc2n1Cc1ccc(Cl)cc1 | > 25 µM (inactive) | > 25 |
| CC1CCN(c2nc(-c3cccnc3)nc3scc(-c4ccccc4)c23)CC1 | 13.1 µM | > 25 |
| O=C(CNC(=S)N(Cc1ccccc1)Cc1ccccc1F)NCc1ccccc1 | 17.7 µM | > 25 |
| CC1CC2=C(NC(=S)NC2c2cccc(F)c2)/C(=C/c2cccc(F)c2)C1 (centres undefined) | 8.15 µM | > 25 |
| CC(=O)Nc1ccc(S(=O)(=O)N2CCSC2c2ccc(Cl)cc2)cc1 (centres undefined) | > 25 µM (inactive) | > 25 |
| COc1ccc(NC(=S)Nc2ccc(OCc3ccccc3)cc2)c(OC)c1 | 17.4 µM | 24.9 |
| CSc1nncn1/N=C/c1ccc2c(c1)OCO2 | > 25 µM (inactive) | > 25 |
| Cn1c(CCN2CCN(c3ccccc3)CC2)nc2cc(NC(=O)c3ccco3)ccc21 | > 25 µM (inactive) | > 25 |
| CCc1cccc(C)c1NC(=S)NCCc1c(C)[nH]c2ccc(C)cc12 | > 25 µM (inactive) | > 25 |
| O=C1CC(C(=O)NCc2ccccc2)C2(CCCC2)O1 (centres undefined) | > 25 µM (inactive) | > 25 |
| Fc1ccc(-c2csc3ncnc(N4CCc5ccccc5C4)c23)cc1 | 9.26 µM | > 25 |
| COC(=O)c1ccc(-c2sc3nc(N4CCOCC4)c4c(c3c2N)CCCC4)o1 | > 25 µM (inactive) | > 25 |

| Structure (SMILES) | IC50 (WT cells) | IC50 [1] [µM] |
| --- | --- | --- |
| Cn1c(Oc2ccc3c(c2)OCO3)nc2c1c(=O)n(Cc1ccccc1)c(=O)n2C | > 25 µM (inactive) | > 25 |
| CC(c1ccco1)N(C(=O)COc1ccccc1[N+](=O)[O-])c1ccccn1 (centres undefined) | > 25 µM (inactive) | > 25 |
| COc1ccc(S(=O)(=O)N2c3ccccc3OCC2C(C)(C)C)cc1 (centres undefined) | 18.5 µM | > 25 |
| O=C(Nc1ccc(Cl)cc1)N1CCN(c2ccc3nnc(-c4ccc(F)cc4)n3n2)CC1 | > 25 µM (inactive) | > 25 |
| CCOC(=O)C1CCN(S(=O)(=O)c2c(C)n[nH]c2C)CC1 | > 25 µM (inactive) | > 25 |
| Cc1ccc(-c2cc(C(F)F)n3ncc(C(=O)Nc4c(C)nn(Cc5ccccc5Cl)c4C)c3n2)cc1 | 16.2 µM | > 25 |
| CC(=O)Cc1nsc(NC(=O)c2ccc(-c3ccc(Cl)c(Cl)c3)o2)n1 | > 25 µM (inactive) | > 25 |
| Oc1cccc(C2c3[nH]c4ccccc4c3CCN2Cc2cnn(-c3ccccc3)c2)c1 (centres undefined) | > 25 µM (inactive) | > 25 |
| COc1cc(SC#N)ccc1N=Cc1c(C)[nH]n(-c2ccc(C)cc2)c1=O | 17.4 µM | > 25 |
| Cc1cc(C)nc(N2CCC(C(=O)NCCc3ccc(F)cc3)CC2)n1 | > 25 µM (inactive) | > 25 |
| COC(=O)[C@@H]1CC[C@H](C)[C@@H](c2ccc(C)cc2)N1C(=O)c1ccc(/C=N/O[C@@H](C)CN2CCCCc3nc(C)c(C)cc32)cc1 | 6.19 µM | > 25 |
| CCN(CC)CCNC(=O)Cn1nc(Cc2ccccc2)c2ccccc2c1=O | > 25 µM (inactive) | > 25 |
| Cc1nc(C)c(-c2csc(Nc3cccc(O)c3)n2)s1 | > 25 µM (inactive) | > 25 |
| CC(C)N(C(=S)NC1CCCCC1)c1ccccc1 | > 25 µM (inactive) | > 25 |
| COc1ccc(NC(=S)NC(NC(=O)c2ccc(Cl)cc2Cl)C(Cl)(Cl)Cl)c([N+](=O)[O-])c1 (centres undefined) | 11.4 µM | > 25 |
| O=C(Nc1cc(S(=O)(=O)N2CCCCC2)ccc1Cl)c1ccccc1NS(=O)(=O)c1ccc(F)cc1 | 23.4 µM | > 25 |
| Cc1ccccc1S(=O)(=O)c1c(C)cc(C)n(CC(C)C)c1=O | > 25 µM (inactive) | > 25 |
| COc1ccc(NC(=O)CSc2ccc3c(c2)OCCO3)cc1OC | > 25 µM (inactive) | > 25 |
| O=C(COC(=O)Cc1c(Cl)cccc1Cl)Nc1ccccc1-c1ccccc1 | 13.3 µM | > 25 |
| Cc1ccc(C)c(C(=O)COC(=O)c2cc([N+](=O)[O-])ccc2NCCO)c1 | 25 µM (inactive) | > 12.5 |
| O=C(CCC1N=C2c3ccccc3N=C(SCc3cccc(Cl)c3)N2C1=O)NCc1ccco1 (centres undefined) | > 25 µM (inactive) | > 25 |

| Structure (SMILES) | IC50 (WT cells) | IC50 [1] [µM] |
| --- | --- | --- |
| Cc1cccc(OCCCC(=O)Nc2ccc3c(c2)OCO3)c1 | > 25 µM (inactive) | > 25 |
| CC(Sc1ccc(Cl)cc1)C(=O)Nc1ccccc1-c1ccccc1 (centres undefined) | 13 µM | > 25 |
| c1n[nH]c(NCc2ccc3c(c2)OCO3)n1 | > 25 µM (inactive) | > 25 |
| O=C1C(Cl)=C(NC2CCCCC2)C(=O)N1Cc1ccccc1 | 19.1 µM | > 25 |
| CCOC(=O)Cc1c(Sc2ccccc2)c2cc(C)ccc2n1C | 12.3 µM | > 25 |
| CCOc1ccc(NS(=O)(=O)c2ccc(NC(=S)NC(=O)CC(C)C)cc2)cc1 | 14.3 µM | > 25 |
| Cc1oc(-c2ccccc2)[n+]([O-])c1C | > 25 µM (inactive) | > 25 |
| Cc1ccc(Cn2ncc3c(N4CCN(c5ccccc5C)CC4)ncnc32)cc1 | 7.78 µM | 24.7 |
| CC(C)c1ccc(OCc2nc(-c3ccccn3)no2)c(Br)c1 | 15.6 µM | 20.8 |
| Cc1oc(-c2ccccc2)nc1CN1C(=O)CN=C(c2ccccc2)c2ccccc21 | > 25 µM (inactive) | > 25 |
| CCC(C(=O)OCC(=O)Nc1ccccc1-c1ccccc1)c1ccccc1 (centres undefined) | 17.3 µM | > 25 |
| CCCCNC(=S)N(C)/N=C/c1c(F)c(F)c(F)c(F)c1F | > 25 µM (inactive) | > 25 |
| O/N=C(\c1ccc(Cl)cc1Cl)c1ncc(C(F)(F)F)cc1Cl | 20.9 µM | > 25 |
| CC(C)N1C(=S)SC(C)(C)C1n1oc(=O)n(-c2ccc(Cl)c(Cl)c2)c1=O (centres undefined) | > 25 µM (inactive) | > 25 |
| N#Cc1ccccc1Sc1ccccc1C(=O)Nc1ccc(Br)cc1 | > 25 µM (inactive) | > 25 |
| COc1ccc(Nc2nc(-c3ccccc3)c3ccccc3n2)cc1 | 10.7 µM | > 25 |
| c1csc(C(c2nnnn2C2CCCCC2)N2CCCC3(CCCCC3)C2)c1 (centres undefined) | 4.15 µM | > 25 |
| C/C(N)=C(/C#N)C(=O)CSc1nnnn1-c1ccccc1 | > 25 µM (inactive) | > 25 |
| COCCn1c(=S)[nH]c2cc(C(=O)N3CCc4ccccc43)ccc2c1=O | > 25 µM (inactive) | > 25 |
